# Source: US20070249988A1, “Electrotransport Delivery of Nesiritide” (ALZA CORPORATION, priority 2006, published 2007)
# Key:
# [1] = Circular dichroic spectrometry (CD), secondary structure; assay type: physicochemical
# Method: Circular dichroic spectrometry was used to assess the amount of secondary structure present in nesiritide under aqueous, low ionic strength conditions. In addition, changes in the value calculated for mean residual ellipticity were analyzed to determine if secondary structure, specifically α-helix, could be induced upon the addition of 2,2,2-trifluoroethanol (TFE) or high salt, or both, to nesiritide in aqueous solution at 0.8 mg/mL.
# Several methods have been used to estimate the secondary structural components of proteins from the CD spectra. The techniques have been applied to peptide spectra with varying degrees of success (Sreerama, N., Woody, R. W. A Self-Consistent method for the Analysis of Protein Secondary Structure from Circular Dichroism, Analytical Biochemistry, 1993; 209 32-44; Yang, J. T. et al. Separation and Analysis of Peptides and Proteins, Methods Enzymology, 1986; 130 208-269). Computer programs were used to analyze the data from CD scans. Mean residue ellipticity ([θ]nm) was computed at each wavelength and compared to reference spectra to estimate the relative amounts of helix, sheet, turn and aperiodic secondary structure.
# The secondary structure assumed by nesiritide in an aqueous environment and induced by the addition of TFE, NaCl or both, were analyzed by CD. The peptide was studied at both 32 and 20° C. The peptide was studied at two concentrations: 0.2 mg/mL (20° C.) to allow data to be obtained at wavelengths below 200 nm, and at 0.8 mg/mL (32° C.) to increase any tendency toward self association. The CD ellipticity values at 222 nm have been interpreted to best reflect the amount of α-helix. The fully helical peptide or protein would have [θ]222nm of −32,000° cm^2, while the peptide lacking secondary structure would have a value of ˜2400° cm^2.
# The use of the lower concentration, with a 2 mm path, allowed data to be collected down to 197 nm. The difference spectrum (FIG. 1B) was resolved into component gaussian bands (Holladay, L. A., Savage, C. R., Cohen, S., Puett, D. Biochemistry, 1976; 15 2624-2633; Holladay, L. A., Hammonds, R. G., Jr., Puett, D. Biochemistry, 1974; 13 1653-1661) in order to estimate the amount of α-helix and β-sheet formed. Estimates of secondary structure were made by computing the ratio of the observed rotational strength (R cgs) with those for poly-L lysine in either the α-helical or β-sheet form. The table below gives the parameters of the resolved gaussians, and the estimates of secondary structure. Nesiritide in 40% TFE probably exists as a mixture of conformers.
# [2] = Sedimentation equilibrium analytical ultracentrifugation (XLA), self-association; assay type: physicochemical; parameters: M(1 − vbar * p) observed: unit not given beside the values; settings: for Residual Pattern / M(1 − vbar * p) observed: 10 mM ionic; for M(1 − vbar * p) observed: 32° C., 44,000 rpm
# Method: Nesiritide's tendency towards self-association was assessed using sedimentation equilibrium analytical ultracentrifugation (XLA). An increase in the concentration of peptide in the donor formulation usually is expected to produce an increase in the rate of transport. With many peptides, raising the peptide concentration in solution will also heighten any tendency toward self-association. The conditions of the donor formulation are selected to maximize delivery and minimize aggregation. The development of peptide aggregates in solution can be determined directly by analytical ultracentrifugation. The sensitivity of detection requires at least 5% of the peptide exist as an aggregate.
# Solutions of nesiritide at pH 6 and 7, (10 mM ionic imidazole) and pH 8 (10 mM ionic serinamide) were analyzed by sedimentation equilibrium ultracentrifugation. Samples were centrifuged to equilibrium at 44,000 rpm at 32° C., overnight. Absorbance as a function of radial position was determined at 258 nm.
# When a highly charged peptide, such as nesiritide at pH 7, is formulated in a low ionic strength buffer, it will behave in a nonideal manner. Under such conditions, the apparent buoyant molecular weight will be lowered because of charge-charge repulsion. Theory has not been developed to estimate the magnitude of this effect when the bulk of the solution ionic strength arises from the peptide and its counter ions (as opposed to the case where the buffer ions contribute the majority of the ionic strength). The calculated value for M(1−vbar*ρ), given in the table below, was based on the behavior expected under ideal conditions.
# [3] = Isocratic hydrophobic interaction chromatography (HIC); assay type: physicochemical
# Method: Nesiritide was analyzed by isocratic hydrophobic interaction chromatography (HIC) using the conditions set forth in the table below to estimate the peptide's hydrophobicity.
# hairless guinea pigs = assay: Skin irritation after electrotransport administration; assay type: in vivo
# Method: Nesiritide was administered to hairless guinea pigs, and the guinea pigs were monitored for skin irritation.
# [4] = 40% TFE difference spectrum, 0.2 mg/mL, 20° C., pH 7, 10 mM ionic cacodylate, 2 mm path
# [5] = 3 mg/mL (~1 mM), pH 6 (imidazole)
# [6] = 3 mg/mL (~1 mM), pH 7 (imidazole)
# [7] = 3 mg/mL (~1 mM), pH 8 (serinamide)
# [8] = 10 mg/mL (~3 mM), pH 7 (imidazole)
smiles,measurement,setting,value
"CC[C@H](C)[C@@H]1NC(=O)[C@H](CCCNC(=N)N)NC(=O)[C@H](CC(=O)O)NC(=O)[C@H](CCSC)NC(=O)[C@H](CCCCN)NC(=O)[C@H](CCCNC(=N)N)NC(=O)CNC(=O)[C@H](Cc2ccccc2)NC(=O)[C@@H](NC(=O)CNC(=O)[C@H](CO)NC(=O)CNC(=O)[C@H](CCC(N)=O)NC(=O)[C@@H](NC(=O)[C@H](CCSC)NC(=O)[C@H](CCCCN)NC(=O)[C@@H]2CCCN2C(=O)[C@@H](N)CO)C(C)C)CSSC[C@@H](C(=O)N[C@@H](CCCCN)C(=O)N[C@H](C(=O)N[C@@H](CC(C)C)C(=O)N[C@@H](CCCNC(=N)N)C(=O)N[C@@H](CCCNC(=N)N)C(=O)N[C@@H](Cc2c[nH]cn2)C(=O)O)C(C)C)NC(=O)CNC(=O)[C@H](CC(C)C)NC(=O)CNC(=O)[C@H](CO)NC(=O)[C@H](CO)NC(=O)[C@H](CO)NC(=O)[C@H](CO)NC1=O [Nesiritide, nesiritide]",[θ]222nm mean residue ellipticity,"[1]; 0.8 mg/mL (1 mm path), pH 5.5 unbuffered, in water",−1984 deg cm^2 dmol^−1
same,[θ]222nm mean residue ellipticity,"[1]; 32° C., 40% or 80% TFE or 1.8 M NaCl",~3200 ° cm^2 dmol^−1
same,"% Structure Estimate, α-Helix n → Π* (222 nm)",[1]; [4],6.4%
same,"% Structure Estimate, α-Helix Π → Π* (208 nm)",[1]; [4],5.0%
same,"% Structure Estimate, β-Sheet n → Π* (215 nm)",[1]; [4],5.1%
same,Residual Pattern,[2]; [5],nonideal
same,M(1 − vbar * p) observed,[2]; [5],630
same,Residual Pattern,[2]; [6],flat
same,M(1 − vbar * p) observed,[2]; [6],644
same,Residual Pattern,[2]; [7],polydisperse
same,M(1 − vbar * p) observed,[2]; [7],884
same,Residual Pattern,[2]; [8],nonideal
same,M(1 − vbar * p) observed,[2]; [8],703
same,self-association,"[2]; all conditions tested, by ultracentrifugation",no indication of self-association
same,association state,"[2]; highest concentration analyzed, 3 mM, 10 mg/mL at pH 7 in 10 mM ionic buffer",remained monomeric
same,"free energy of adsorption to the HIC column, δΔ Gads","[3]; imidazole at pH 7, 10 mM ionic",0.46 k J mole^−1
same,hydrophilicity by HIC,"[3]; pH 7.0 imidazole 10 mM ionic, 32° C.",high measured hydrophilicity
same,skin irritation,hairless guinea pigs; 0.1 mA/cm^2,mild
same,skin irritation,hairless guinea pigs; 0.2 mA/cm^2,mild
